≈ marks a conversion by molar mass, not a printed value. Entries after “also recorded” stand apart in the source; their conditions may differ.
Tests used:
[1] = test system: Staphylococcus aureus A 355; test: micro liquid serial dilution test (Table II); assay type: cell-based; conditions: A355, 18 hours at 30° C or 37° C, penicillinase-producer, read-out: Minimum inhibitory concentration
Description: (§1) The microbiological activity of the antibiotic preparation towards a number of micoorganisms has been determined by a micro liquid serial dilution test:
(§2) A stock solution of the test compounds at a concentration of 200 μg/ml in 0.05 molar phosphate buffer at a pH of 6.5 was prepared and serial 1:1 dilutions were made with a liquid medium inoculated with the test organism, using conventional glass spot-test plates. The plates were incubated 18 hours at 30° C or 37° C. The minimum inhibitory concentration (MIC) which is the smallest concentration of compound completely inhibiting the growth of the test organism is read and calculated in μg/ml.
(§3) wherein ') indicates penicillinase-producer; ") indicates recently isolated hospital strain.

[2] = test system: Staphylococcus aureus L 160a; test: micro liquid serial dilution test (Table II); assay type: cell-based; conditions: 18 h, read-out: Minimum inhibitory concentration
Description: as §1, §2, §3

Proteus morganii 2241 = test: micro liquid serial dilution test (Table II); assay type: cell-based; conditions: Morganella morganii, 18 hours at 30° C or 37° C, recently isolated hospital strain, read-out: Minimum inhibitory concentration
Description: as §1, §2, §3

[3] = test system: Pseudomonas aeruginosa 2396; test: micro liquid serial dilution test (Table II); assay type: cell-based; conditions: 18 hours at 30° C or 37° C, recently isolated hospital strain, read-out: Minimum inhibitory concentration
Description: as §1, §2, §3

Treponema hyodysenteriae = test: early experiments against Treponema dysentery; assay type: in vivo; conditions: swine
Description: In an early stage of investigation, it was presumed that mocimycin, having a similar anti-microbial spectrum to that of tylosin (Merck Index, 8th Ed. page 1089), might be effective against Treponema hyodysenteriae causing Treponema dysentery of Vibrio Doyle, one of the most common swine diseases. […] For that reason, no further investigations were carried out.

[4] = test system: organisms of the Mycoplasma genus (pleuro-pneumonia like organisms); test: in vitro activity against Mycoplasma genus; assay type: cell-based
[5] = growth promotion in pigs (Example III); assay type: in vivo; conditions: pigs, summary of Table VII
Description: The sodium salt of mocimycin as obtained in Example I, was pre-mixed with wheat flour which mixture, added to the feed, was administered to pigs. The amount of the antibiotic present in the feed (based on the weight of the feed) is given hereinbelow in Table VII, in which the average relative weights of the pigs after 6 and 12 weeks, respectively are given.

[6] = test system: Brucella melitensis A 488; test: microbe, parasite or virus in culture; assay type: cell-based; conditions: A488, 18 h, read-out: Minimum inhibitory concentration
[7] = growth promotion in slaughter chickens (Example II); assay type: in vivo; conditions: feed additive
Source text: Slaughter chickens are given mocimycin in the form of the sodium salt obtained in Example 1, in a mixture with component of the feed (wheat flour), the amount of antibiotic in the feed (based on the weight of the feed) being as specified in the following Table, which gives the weight of the chickens after 3, 5 and 7 weeks.

rats = test: three-month oral toxicity in rats; assay type: in vivo; conditions: up to 0.1% in the diet, three months
Source text: (§4) The toxicity of the antibiotic has been studied in various animals.

[8] = test system: human-pathogenic microorganisms; test: in vitro activity against human-pathogenic microorganisms; assay type: cell-based; conditions: summary of Table II
Description: as §1, §2

[9] = test system: Clostridium welchii A 738; test: microbe, parasite or virus in culture; assay type: cell-based; conditions: A738, 18 h, read-out: Minimum inhibitory concentration
Actinobacillus equuli = test: activity against Actinobacillus equuli (in words); assay type: cell-based
chickens = test: three-month oral toxicity in chickens; assay type: in vivo; conditions: up to 0.1% in the diet, three months
Source text: as §4

[10] = test system: microorganism causing Treponema dysentery; test: pigs infected with Treponema dysentery (Example VI); assay type: in vivo
Source text: Twenty pigs, 3 months old, were infected with the microorganism causing Treponema dysentery by administering to them feed mixed with a homogenous mixture of contents of the intestines and intestinal mucous membranes of two animals suffereing from the disease. The infected pigs were divided into four groups of five animals each and the animals were fed with the feed as a slurry diluted 1:1 with water for 1 week. The total amount of feed per animal was 1.2 kg each day and was given in two portions.
After 5 days, the first symptoms of the disease were observed from the thin faeces and confirmed by a microbiological investigation of the faeces and […] a week, the animals were treated as follows:
group 2: 100 ppm of tylosin were added to the feed;
group 3: 25ppm of dihydromocimycin were added to the feed; and
group 4: 50 ppm of dihydromocimycin were added to the feed.
The antibiotic-enriched feed was administered for a week. After that week, feed without any antibiotic was given again. Recovery from the infection was observed from the weights of the animals and from inspection samples of the faeces, macroscopically from their consistencies, and microscopically by means of a specific immuno-fluoroescence technique. During the test, one animal of each of groups 1, 3 and 4 died.
The results are shown in the following Table wherein the weights indicated are the averages at that time of the still living animals. The consistency of the faeces is indicated as follows:
+ means thin liquid; ± means thick liquid; - means normal. The results of the immuno-fluorescence technique are indicated quantitatively by indicating the number of Treponemas in the visual field: 5 means very crowded; 4 means many; 3 means about 10 Treponemas; 2 means 1 or 2 Treponemas, 1 means more visual fields necessary to find one Treponema, and - means negative.

Treponema = test: treatment of pigs from a farm with pigs scour, Treponema-positive (Example VII); assay type: in vivo
Description: Pigs, from a farm where problems with pigs scour had existed for some time, were treated under the supervision of the local veterinary surgeon and the inspector of the Health Service Station. The pigs were divided into groups and treated for 4 days in the following manner.
Group 1: 66 pigs were treated with feed containing 100 ppm of tylosin;
Group 2: 34 pigs were treated with feed containing 25 ppm of dihydromocimycin;
Group 3: 40 pigs were treated with feed containing 50 ppm of dihydromocimycin; and
Group 4: 40 pigs were treated with feed containing 100 ppm of dihydromocimycin.
Before the treatment, all animals lost thin or very thin faeces. Samples thereof were investigated and found to be Treponema-positive, and Salmonella-negative. Sometimes worm eggs were found.

[11] = test system: same microorganisms as mocimycin; test: in vitro antimicrobial activity, comparison of the two antibiotics; assay type: cell-based
[12] = test system: microorganism causing Treponema dysentery; test: experiments against the microorganism causing Treponema dysentery
[13] = dihydromocimycin 50 ppm, after 3 weeks, one symbol per animal

What does the source list for `CC=CC=CC1OC(O)(C(CC)C(=O)NCC=CC=C(C)C(OC)C(C)C2OC(C=CC=CC=C(C)C(=O)c3c(O)cc[nH]c3=O)C(O)C2O)C(O)C(O)C1(C)C` (stereo not shown) [mocimycin]?
MIC [1]: 100 µg/mL (≈ 125 µM); MIC [2]: > 200 µg/mL; MIC (Proteus morganii 2241): 100 µg/mL (≈ 125 µM); MIC [3]: > 100 µg/mL; activity against Treponema dysentery compared with tylosin (Treponema hyodysenteriae): active against this disease, but not more so than tylosin; activity in vitro [4]: considerable activity in vitro; growth promoting effect [5]: growth promoting effect; MIC [6]: 1 µg/mL (≈ 1.25 µM); growth of the chickens [7]: an increase in growth; undesired pharmacological effect (rats): does not result in any undesired pharmacological effect; activity against a number of human-pathogenic microorganisms [8]: almost no activity; MIC [9]: 10 µg/mL (≈ 12.5 µM); activity (Actinobacillus equuli): active; undesired pharmacological effect (chickens): does not result in any undesired pharmacological effect

Which “activity relative to tylosin” value ([10]; administered amounts taken into account) does the source give for `CC=CC=CC1OC(O)(C(CC)C(=O)NCC=CC=C(C)C(OC)C(C)C2OC(C=CC=CC=C(C)C(=O)C3=C(O)CCNC3=O)C(O)C2O)C(O)C(O)C1(C)C` (stereo not shown) [dihydromocimycin] here?
Its value is “at least 4 times”.

And the Weights ([10]; dihydromocimycin 25 ppm group, after 1 week (start of antibiotics))?
The Weights was 21.3 kg.

What about the Weights ([10]; dihydromocimycin 25 ppm group, just before infection (baseline)) of the same molecule?
The Weights was 24.2 kg.

What about the Weights ([10]; dihydromocimycin 25 ppm, after 2 weeks) of the same molecule?
The Weights was 20.2 kg.

And the Weights ([10]; dihydromocimycin 25 ppm, after 3 weeks)?
Its Weights is 24.0 kg.

And the Weights ([10]; dihydromocimycin 50 ppm group, after 1 week (start of antibiotics))?
Its Weights is 21.6 kg.

And the Weights ([10]; dihydromocimycin 50 ppm group, just before infection (baseline))?
Its Weights is 23.4 kg.

And the Weights ([10]; dihydromocimycin 50 ppm, after 2 weeks)?
Its Weights is 21.2 kg.

And the Weights ([10]; dihydromocimycin 50 ppm, after 3 weeks)?
Its Weights is 23.0 kg.

And the Faeces consistency [10, 13]?
The Faeces consistency was “-- +-”.

What about the Immunofluorescence [10, 13] of the same molecule?
Its Immunofluorescence is “-- -- -- --”.

And the “speed of cure compared with tylosin” value ([10]; faeces consistency and immunofluorescence)?
The value was “cured markedly faster than the animals treated with tylosin”.

What about the “animals died during the test” value ([10]; group 3, dihydromocimycin 25 ppm) of the same molecule?
Its value is “one”.

What about the “animals died during the test” value ([10]; group 4, dihydromocimycin 50 ppm) of the same molecule?
Its value is “one”.

What about the “liveliness of treated animals” value (Treponema; 25-100 ppm in feed) of the same molecule?
The value was “much more lively than before the treatment”.

What about the “curing of Treponema dysentery, compared with tylosin” value (Treponema; 25 ppm dihydromocimycin vs 100 ppm tylosin) of the same molecule?
Its value is “better than a dosage of 100 ppm of tylosin”.

What about the time to cure (Treponema; dihydromocimycin 25 ppm in feed (group 2)) of the same molecule?
The time to cure was “cured in periods lying between those of groups 1 and 4”.

What about the time to cure (Treponema; dihydromocimycin 50 ppm in feed (group 3)) of the same molecule?
The time to cure was “cured in periods lying between those of groups 1 and 4”.

And the faeces (Treponema; dihydromocimycin 100 ppm in feed, one day after the start of treatment)?
The faeces was “normal”.

What about the aversion to feed (Treponema; feed containing dihydromocimycin) of the same molecule?
The aversion to feed was “not averse to feed containing dihydromocimycin”.

What about the “in vitro activity compared with mocimycin” value [11] of the same molecule?
The value was “in many cases it shows even a better activity than mocimycin; also recorded: more active than mocimycin against many microorganisms”.

And the “treatment of Treponema dysentery compared with tylosin and mocimycin” value [12]?
Its value is “superior to tylosin (and also to mocimycin)”.

And the “activity against tylosin-resistant strains” value ([12]; tylosin-resistant strains)?
Its value is “active against tylosin-resistant strains”.

From patent US4062948A, “Dihydromocimycin antibiotics” (Gist-Brocades N.V., priority 1970, dated 1977)
